Measured values reported in patent US11337921B2, “Multi-use torasemide composition” (VETOQUINOL SA, priority 2018, dated 2022).

Assay: Solubility of torasemide as a function of pH
Assay type: physicochemical
Conditions: pH between about 2 and 7 (FIG. 1)
Source text: Moreover, the solubility of torasemide depends on the pH of the solution. The stability of torasemide in solution is, moreover, a function of the additives and excipients used in the composition. Thus, torasemide is insoluble at a pH between about 2 and 7 (FIG. 1).

Solubility of torasemide: insoluble
SMILES: Cc1cccc(Nc2ccncc2S(=O)(=O)NC(=O)NC(C)C)c1 [torasemide, 1-isopropyl-3-[(4-m-toluidino-3-pyridyl)sulfonyl]urea]
